Data published in ChEMBL document CHEMBL1201862, “PubChem BioAssay data set” (2004).
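Method: 48-hour compound exposure of cells in 96-well plates, five concentrations, linear interpolation of endpoints. At the GI50, growth is halved.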 Active and inactive are the calls of the source. Rule as the data show it: active = GI50 up to about 1.1 µM and inactive = higher.

Tests used:
Assay in all cases: growth of human tumour cells (NCI), 48 h
SK-MEL-28 = system: SK-MEL-28
UACC-62 = system: UACC-62
SK-OV-3 = system: SK-OV-3
HOP-62 = system: HOP-62
UO-31 = system: UO-31
HOP-92 = system: HOP-92
T47D = system: T47D
SK-MEL-5 = system: SK-MEL-5
NCI-H460 = system: NCI-H460
U-251 = system: U-251
K562 = system: K562
SK-MEL-2 = system: SK-MEL-2
IGROV-1 = system: IGROV-1
MDA-MB-435 = system: MDA-MB-435
HT-29 = system: HT-29
KM12 = system: KM12
OVCAR-3 = system: OVCAR-3
OVCAR-5 = system: OVCAR-5
NCI-H522 = system: NCI-H522
BT-549 = system: BT-549

Measured: GI50

O=C1CC(c2cccc(Cl)c2)Oc2ccccc21 (configuration not stated)
inactive: SK-MEL-28 18.6 µM | UACC-62 14.9 µM | SK-OV-3 20.9 µM | HOP-62 17.1 µM | UO-31 13.8 µM | HOP-92 15.2 µM | T47D 12.7 µM | SK-MEL-5 17.9 µM | NCI-H460 18.4 µM | U-251 25.5 µM | K562 2.9 µM | SK-MEL-2 19.9 µM | IGROV-1 15 µM | MDA-MB-435 17.4 µM | HT-29 17.5 µM | KM12 15.7 µM

CC1(C)N=C(/C(C#N)=[N+](/[O-])C(=O)c2ccccc2)C(C)(C)N1O
inactive: SK-MEL-28 > 100 µM | UACC-62 > 100 µM | SK-OV-3 > 100 µM | HOP-62 > 100 µM | UO-31 > 100 µM | HOP-92 > 100 µM | T47D > 100 µM | SK-MEL-5 > 100 µM | NCI-H460 > 100 µM | OVCAR-3 > 100 µM | U-251 > 100 µM | K562 > 100 µM | SK-MEL-2 > 100 µM | IGROV-1 > 100 µM | MDA-MB-435 > 100 µM | HT-29 > 100 µM | OVCAR-5 > 100 µM | KM12 > 100 µM

C[C@@H](C1CC[C@H]2[C@@H]3[C@@H]4O[C@@H]4[C@@]4(O)CC=CC(=O)[C@]4(C)[C@H]3C[C@H](O)[C@]12C)[C@H]1C[C@]2(C)O[C@]2(C)C(=O)O1 (some centres not stated)
inactive: SK-MEL-28 > 100 µM | UACC-62 > 100 µM | SK-OV-3 > 100 µM | UO-31 > 100 µM | HOP-92 > 100 µM | T47D > 100 µM | SK-MEL-5 > 100 µM | NCI-H460 > 100 µM | OVCAR-3 > 100 µM | U-251 > 100 µM | K562 > 100 µM | SK-MEL-2 > 100 µM | IGROV-1 > 100 µM | MDA-MB-435 > 100 µM | NCI-H522 > 100 µM | HT-29 > 100 µM | OVCAR-5 > 100 µM | KM12 > 100 µM

CC(=O)OCC(=O)OC[C@H](OCc1ccccc1)[C@@H]1[C@H](OC(C)=O)C(=O)N1Cc1ccccc1
inactive: SK-MEL-28 > 100 µM | UACC-62 > 100 µM | SK-OV-3 > 100 µM | HOP-62 > 100 µM | UO-31 > 100 µM | HOP-92 > 100 µM | SK-MEL-5 > 100 µM | OVCAR-3 > 100 µM | U-251 > 100 µM | K562 > 100 µM | SK-MEL-2 > 100 µM | IGROV-1 > 100 µM | MDA-MB-435 > 100 µM | HT-29 > 100 µM | OVCAR-5 > 100 µM | KM12 > 100 µM

Cc1[nH]c(=O)nc(NCCNCCO)c1C(=O)Nc1c2ccccc2nc2ccccc12
inactive: SK-MEL-28 > 100 µM | UACC-62 > 100 µM | SK-OV-3 > 100 µM | HOP-62 > 100 µM | UO-31 > 100 µM | HOP-92 > 100 µM | T47D > 100 µM | SK-MEL-5 > 100 µM | OVCAR-3 > 100 µM | U-251 > 100 µM | K562 > 100 µM | SK-MEL-2 > 100 µM | IGROV-1 > 100 µM | MDA-MB-435 > 100 µM | NCI-H522 > 100 µM | HT-29 > 100 µM | OVCAR-5 > 100 µM | KM12 > 100 µM

COc1ccc(NC(=S)Nc2c(C)n(C)n(-c3ccccc3)c2=O)cc1
inactive: SK-MEL-28 > 100 µM | UACC-62 > 100 µM | SK-OV-3 > 100 µM | HOP-62 > 100 µM | UO-31 > 100 µM | HOP-92 > 100 µM | SK-MEL-5 > 100 µM | NCI-H460 > 100 µM | OVCAR-3 > 100 µM | U-251 > 100 µM | K562 > 100 µM | IGROV-1 > 100 µM | MDA-MB-435 > 100 µM | NCI-H522 > 100 µM | HT-29 > 100 µM | OVCAR-5 > 100 µM | BT-549 > 100 µM | KM12 > 100 µM

CC(C)(Br)C(=O)N1CCN(C(c2ccccc2)c2ccccc2)CC1
inactive: SK-MEL-28 > 100 µM | UACC-62 > 100 µM | SK-OV-3 > 100 µM | HOP-62 43.5 µM | UO-31 68.7 µM | HOP-92 68.4 µM | SK-MEL-5 61.4 µM | NCI-H460 > 100 µM | OVCAR-3 19.8 µM | U-251 > 100 µM | K562 > 100 µM | SK-MEL-2 > 100 µM | IGROV-1 > 100 µM | MDA-MB-435 > 100 µM | NCI-H522 85.7 µM | HT-29 39.5 µM | OVCAR-5 > 100 µM | BT-549 > 100 µM | KM12 16.2 µM

Cc1ccc(S(=O)(=O)N/N=C2\CC3C4CCC3C2C4)cc1 (configuration not stated)
inactive: SK-MEL-28 > 100 µM | UACC-62 > 100 µM | SK-OV-3 > 100 µM | HOP-62 > 100 µM | UO-31 > 100 µM | HOP-92 > 100 µM | T47D > 100 µM | SK-MEL-5 > 100 µM | NCI-H460 > 100 µM | OVCAR-3 > 100 µM | U-251 > 100 µM | K562 > 100 µM | SK-MEL-2 > 100 µM | IGROV-1 > 100 µM | MDA-MB-435 > 100 µM | NCI-H522 > 100 µM | HT-29 > 100 µM | OVCAR-5 > 100 µM | KM12 > 100 µM
